Source: PubChem BioAssay AID2060498 (Molecular Pharmacology Branch, DTP, NCI, 2025)

System: 171881-019-R-J1-PDC tumor spheroids, viability
Assay: Anticancer human tumor 171881-019-R-J1-PDC patient-derived invasive breast carcinoma cell line growth inhibition [GQUAD]
Conditions: spheroids with HUVEC and MSC; for IC50: curve of first compound; for viability, T/C: stronger effect = lower value
In short: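 Tumor cells were grown as complex spheroids with HUVEC endothelial cells and mesenchymal stem cells as stroma. G-quadruplex stabilizers were combined with targeted agents over half-log dilutions from near the clinical Cmax, or from 10 microM.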

[1] = second compound 0.0316 µM, first compound 0.0316 µM
[2] = second compound 0.0316 µM, first compound 0.1 µM
[3] = second compound 0.0316 µM, first compound 0.316 µM
[4] = second compound 0.0316 µM, first compound 1 µM
[5] = second compound 0.0316 µM, first compound 3.16 µM
[6] = second compound 0.0316 µM, first compound 10 µM
[7] = second compound 0.1 µM, first compound 0.0316 µM
[8] = second compound 0.1 µM, first compound 0.1 µM
[9] = second compound 0.1 µM, first compound 0.316 µM
[10] = second compound 0.1 µM, first compound 1 µM
[11] = second compound 0.1 µM, first compound 3.16 µM
[12] = second compound 0.1 µM, first compound 10 µM
[13] = second compound 0.316 µM, first compound 0.0316 µM
[14] = second compound 0.316 µM, first compound 0.1 µM
[15] = second compound 0.316 µM, first compound 0.316 µM
[16] = second compound 0.316 µM, first compound 1 µM
[17] = second compound 0.316 µM, first compound 3.16 µM
[18] = second compound 0.316 µM, first compound 10 µM
[19] = second compound 1 µM, first compound 0.0316 µM
[20] = second compound 1 µM, first compound 0.1 µM
[21] = second compound 1 µM, first compound 0.316 µM
[22] = second compound 1 µM, first compound 1 µM
[23] = second compound 1 µM, first compound 3.16 µM
[24] = second compound 1 µM, first compound 10 µM
[25] = second compound 3.16 µM, first compound 0.0316 µM
[26] = second compound 3.16 µM, first compound 0.1 µM
[27] = second compound 3.16 µM, first compound 0.316 µM
[28] = second compound 3.16 µM, first compound 1 µM
[29] = second compound 3.16 µM, first compound 3.16 µM
[30] = second compound 3.16 µM, first compound 10 µM
[31] = second compound 10 µM, first compound 0.0316 µM
[32] = second compound 10 µM, first compound 0.1 µM
[33] = second compound 10 µM, first compound 0.316 µM
[34] = second compound 10 µM, first compound 1 µM
[35] = second compound 10 µM, first compound 3.16 µM
[36] = second compound 10 µM, first compound 10 µM
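Note: spheroids exposed to compounds for 7 days.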
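Throughout, for viability, T/C: 100% = DMSO vehicle control viability.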

Structure (SMILES): Cc1cccc(N(C)C(=O)C2C(O)CCN2c2nc(C)cc(C(F)(F)F)c2C#N)c1 (stereo unspecified) + Cc1[nH]c2ccc(F)cc2c1-c1nc2c3cccnc3c3ncccc3c2[nH]1
- IC50 (second compound 0.0316 µM): > 10 µM
- IC50 (second compound 0.1 µM): > 10 µM
- IC50 (second compound 0.316 µM): > 10 µM
- IC50 (second compound 1 µM): > 10 µM
- IC50 (second compound 3.16 µM): < 0.0316 µM
- IC50 (second compound 10 µM): 3.92 µM
- viability, T/C [1]: 113%
- viability, T/C [2]: 94.4%
- viability, T/C [3]: 95.6%
- viability, T/C [4]: 95.9%
- viability, T/C [5]: 100%
- viability, T/C [6]: 69%
- viability, T/C [7]: 105%
- viability, T/C [8]: 106%
- viability, T/C [9]: 93.7%
- viability, T/C [10]: 90.3%
- viability, T/C [11]: 81.9%
- viability, T/C [12]: 77.8%
- viability, T/C [13]: 97.4%
- viability, T/C [14]: 95.3%
- viability, T/C [15]: 91.9%
- viability, T/C [16]: 91.4%
- viability, T/C [17]: 102%
- viability, T/C [18]: 80.7%
- viability, T/C [19]: 91.7%
- viability, T/C [20]: 77.7%
- viability, T/C [21]: 91.8%
- viability, T/C [22]: 74.6%
- viability, T/C [23]: 90.5%
- viability, T/C [24]: 79%
- viability, T/C [25]: 23.7%
- viability, T/C [26]: 18.9%
- viability, T/C [27]: 30.2%
- viability, T/C [28]: 25.2%
- viability, T/C [29]: 20.3%
- viability, T/C [30]: 22.3%
- viability, T/C [31]: 47.4%
- viability, T/C [32]: 59%
- viability, T/C [33]: 48.1%
- viability, T/C [34]: 60.5%
- viability, T/C [35]: 48.8%
- viability, T/C [36]: 44.3%

Structure (SMILES): CC(C)(O)C1CCC(Nc2ccc3ncc(-c4cccc(C(F)(F)F)c4)n3n2)CC1 (stereo unspecified) + Cc1[nH]c2ccc(F)cc2c1-c1nc2c3cccnc3c3ncccc3c2[nH]1
- IC50 (second compound 0.0316 µM): 1.83 µM
- IC50 (second compound 0.1 µM): 1.82 µM
- IC50 (second compound 0.316 µM): 1.39 µM
- IC50 (second compound 1 µM): 0.614 µM
- IC50 (second compound 3.16 µM): < 0.0316 µM
- IC50 (second compound 10 µM): < 0.0316 µM
- viability, T/C [1]: 94.8%
- viability, T/C [2]: 104%
- viability, T/C [3]: 88.4%
- viability, T/C [4]: 74.5%
- viability, T/C [5]: 23.8%
- viability, T/C [6]: 32%
- viability, T/C [7]: 99.5%
- viability, T/C [8]: 96.7%
- viability, T/C [9]: 97.8%
- viability, T/C [10]: 73.5%
- viability, T/C [11]: 25.4%
- viability, T/C [12]: 31.1%
- viability, T/C [13]: 78.7%
- viability, T/C [14]: 71.6%
- viability, T/C [15]: 66.2%
- viability, T/C [16]: 60%
- viability, T/C [17]: 24%
- viability, T/C [18]: 25.4%
- viability, T/C [19]: 63.6%
- viability, T/C [20]: 47.6%
- viability, T/C [21]: 58.8%
- viability, T/C [22]: 45.2%
- viability, T/C [23]: 16.4%
- viability, T/C [24]: 10.9%
- viability, T/C [25]: 6.94%
- viability, T/C [26]: 4.45%
- viability, T/C [27]: 5.15%
- viability, T/C [28]: 3.84%
- viability, T/C [29]: 2.07%
- viability, T/C [30]: 0.75%
- viability, T/C [31]: 36.5%
- viability, T/C [32]: 42%
- viability, T/C [33]: 28.6%
- viability, T/C [34]: 24.1%
- viability, T/C [35]: 5.07%
- viability, T/C [36]: 3.8%

Structure (SMILES): O=c1[nH]cc(F)c(=O)[nH]1 + Cc1cnc(CNC(=O)c2c(=O)c3ccc(N4CCCN(C)CC4)nc3n3c2sc2ccccc23)cn1
- IC50 (second compound 0.0316 µM): > 10 µM
- IC50 (second compound 0.1 µM): > 10 µM
- IC50 (second compound 0.316 µM): > 10 µM
- IC50 (second compound 1 µM): > 10 µM
- IC50 (second compound 3.16 µM): > 10 µM
- IC50 (second compound 10 µM): > 10 µM
- viability, T/C [1]: 80.2%
- viability, T/C [2]: 69.5%
- viability, T/C [3]: 57.5%
- viability, T/C [4]: 57.4%
- viability, T/C [5]: 54.5%
- viability, T/C [6]: 57%
- viability, T/C [7]: 77.7%
- viability, T/C [8]: 67.7%
- viability, T/C [9]: 62.2%
- viability, T/C [10]: 58.3%
- viability, T/C [11]: 59.4%
- viability, T/C [12]: 60.4%
- viability, T/C [13]: 68.9%
- viability, T/C [14]: 71.2%
- viability, T/C [15]: 65.6%
- viability, T/C [16]: 58.7%
- viability, T/C [17]: 65.2%
- viability, T/C [18]: 59.4%
- viability, T/C [19]: 67.7%
- viability, T/C [20]: 60.6%
- viability, T/C [21]: 65.5%
- viability, T/C [22]: 60.2%
- viability, T/C [23]: 66.2%
- viability, T/C [24]: 63.1%
- viability, T/C [25]: 65%
- viability, T/C [26]: 59.6%
- viability, T/C [27]: 58.9%
- viability, T/C [28]: 55.5%
- viability, T/C [29]: 65%
- viability, T/C [30]: 62.3%
- viability, T/C [31]: 59.1%
- viability, T/C [32]: 59.6%
- viability, T/C [33]: 55.1%
- viability, T/C [34]: 57.7%
- viability, T/C [35]: 61.5%
- viability, T/C [36]: 54%
